# Positions of bridges follow the written chain, without caps; N, C: chain ends. Residues, ends and D or L forms follow the SMILES beside them.
# Key:
# [1] = target: T1, BTLA protein (Homo sapiens, UniProt Q7Z6A9); test: SPR analysis of BTLA protein binding to immobilized HVEM (14–39) peptide
# T1 construct: purchased Novoprotein C563
# Description: To analyze the binding properties between BTLA and the HVEM (14–39) peptide, we performed the affinity measurements using SPR. Thus, the peptide extended by five glycine residues at the N-terminus and biotin was first immobilized on a streptavidin matrix-coated sensor chip. The BTLA protein was then injected at different concentrations (0, 1, 3, 5, 10, and 15 µM). […] Moreover, the SPR results reveal that the peptide binds approximately 8 times slower (k1 = 76400), and dissociates 36 times slower (k−1 = 0.00332) than does the HVEM protein (k1 = 620000 and k−1 = 0.12), which agrees with the theoretical results of simulations with crystal-based structure and NMR-based structure of the peptide (Table 1).
# Figure 6 SPR analysis of the BTLA protein binding to the HVEM (14–39) peptide. Sensorgrams show the results of SPR analysis conducted on the binding of the indicated concentrations of BTLA protein (C = 0, 1, 3, 5, 10, and 15 μM) in HBS-EP buffer.
# Recombinant human BTLA protein was purchased from Novoprotein (company product code: C563). Recombinant human BTLA-Fc, HVEM-Fc and anti-human BTLA (#7.1)-blocking mAb were a generous gift from Prof. D. Olive (Inserm U1068/CNRS U7258, Marseille, France). Anti-HVEM mAb was biotinylated according to the manufacturer’s instructions (Biotin Labeling Kit-NH2, Abnova, #KA0003).
# Standard SPR analyses were performed using a Biacore T200 (GE Healthcare) instrument essentially as described in the manufacturer’s manual. BTLA protein binding was studied using the HVEM(14–39) peptide elongated by five glycine residues at the N-terminus and immobilized on a streptavidin matrix-coated Sensor Chip SA (GE Healthcare). The peptide was immobilized on the sensor surface to yield a final value of ~1100 RU. HBS-EP (150 mM NaCl, 10 mM HEPES pH 7.4, 3 mM EDTA, 0.05% Surfactant P20) was used as the running buffer. In all the experiments, the buffer flow was set to 30 µL/min, with all injections at a volume of 120 µL. The sensorchip surface was regenerated with 0.5 M NaCl and 10 mM glycine. The data obtained were analyzed using Biacore T200 Evaluation Software 3.1 (Biacore, GE Healthcare, USA). The results are presented as sensorgrams obtained after subtraction of the background response signal from control experiments with buffer injections.
# [2] = tested on: peripheral blood mononuclear cells (PBMC); type: cell-based, human; conditions: PBMC from 3 healthy donors; peptide 0.1 and 5 mg/ml; 6 and 24 h, 37 °C; trypan blue counting and DAPI flow cytometry
# Description: (§1) Then, we measured the cell death by counting the cells using trypan blue and by flow cytometry using 4′,6-diamidino-2-phenylindole dihydrochloride (DAPI).
# Blood samples were also collected from healthy volunteers through the local Swiss blood bank. Fresh peripheral blood mononuclear cells were purified by density gradient centrifugation (Isopaque-Ficoll) within 2 h after blood sampling. Cells were cryopreserved in RPMI medium 1640 supplemented with 40% FCS and 10% DMSO.
# Then, 2 × 10^4 total PBMC per well (96-well plate) was cultured with or without the HVEM (14–39) peptide at 5 or 0.1 mg/mL in RPMI 1640 supplemented with 10% FCS, 1% penicillin-streptomycin, and 25 mM HEPES. After 6 and 24 h at 37 °C, cells were harvested counted with Trypan blue exclusion. Cells were then labeled with DAPI and analyzed by flow cytometry to determine the percentage of cell death. […]
# medium at time points (from the bottom) = 0h, 2h, 3h, 6h and 24h (gradient 5-100%B in 60 […]
# Figure S6. 293T cells expressing human BTLA were incubated with different concentrations (0.1, 1 and 5 mg/ml) of peptide HVEM(14-39) prior labeling with rhHVEM-Fc and AF647-conjugated anti-human IgG antibody.
# Fig. S7. Cytotoxic assay. PBMC from 3 healthy donors were incubated with HVEM(14-39) peptide at 0, 0.1 and 5 mg/ml in culture medium for 6 and 24h. Cells were subsequently counted and labelled with a dead cell marker. […]
# [3] = tested on: 293T cells; test: Toxicity on 293T cells (data not shown); type: cell-based, human; conditions: 5 mg/mL
# Text: as §1
# [4] = target: T2, BTLA/HVEM binding on 293T cells expressing human BTLA (Homo sapiens, UniProt Q7Z6A9); test: BTLA/HVEM interaction cell line assay (HVEM-Fc binding to 293T cells expressing BTLA, flow cytometry); type: cell-based; conditions: 293T cells expressing human BTLA preincubated with peptide 5 mg/mL, 1 h, 4 °C in PBS, then HVEM-Fc 8 μg/mL and AF647 anti-human IgG
# T2 construct: Krummenacher, University of Pennsylvania; host or cells: 293T
# T2 sequence (Q7Z6A9 31-289): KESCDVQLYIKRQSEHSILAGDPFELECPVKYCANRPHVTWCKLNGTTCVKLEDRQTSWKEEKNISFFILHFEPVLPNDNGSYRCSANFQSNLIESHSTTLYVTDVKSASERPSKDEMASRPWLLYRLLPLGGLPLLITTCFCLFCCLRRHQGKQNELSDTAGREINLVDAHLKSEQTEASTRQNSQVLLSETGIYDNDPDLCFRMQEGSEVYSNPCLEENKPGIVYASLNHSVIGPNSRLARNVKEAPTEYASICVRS
# Description: Figure 7 HVEM (14–39) peptide blocks BTLA/HVEM binding. 293T cells expressing human BTLA were incubated with peptides (5 mg/mL) prior to labeling with HVEM-Fc and AF647-conjugated anti-human IgG antibody. The blocking capacity of the HVEM (14–39) peptide was first compared to (A) a scrambled (Ac-[…]-NH2) peptide or (B) to variant peptides (Table S2).
# Cells (293T) expressing BTLA (a generous gift from Dr. C. Krummenacher, University of Pennsylvania, USA) were maintained in culture with RPMI 10% FCS supplemented with 0.2 mg/mL hygromycin B. The cells (2 × 10^5) were incubated with HVEM-Fc (at 8 μg/mL in PBS containing 0.5% BSA) for 30 min at 4 °C. The cells were then washed and incubated with goat anti-human Fc conjugated with AF647 for 20 min at 4 °C in PBS containing 0.5% BSA (Jackson ImmunoResearch, #109–606–170). Inhibition of BTLA/HVEM binding by different peptides was assessed after preincubating the cells with different concentrations of the peptide (5, 1, and 0.1 mg/mL) for 1 h at 4 °C in PBS. After washing in PBS, the cells were stained for 20 min at 4 °C with an amine reactive dye (aqua live/dead stain kit, from Life Technologies, L34957) for dead cell exclusion. BTLA expression was controlled by anti-BTLA APC-conjugated antibody (Biolegend, #344510). Maximum inhibition of binding was determined by adding anti-BTLA7.1 antibody (2 μg/mL) for 1 h at 4 °C, before adding HVEM-Fc. Sample acquisition was performed on a Gallios Flow Cytometer (Beckman Coulter), and data were analyzed using FlowJo Software (TreeStar).
# [5] = target: HVEM 1-103 (Homo sapiens) (UniProt Q92956); test: SPR; conditions: cited from earlier work
# HVEM 1-103 (Homo sapiens), sequence (Q92956 1-103): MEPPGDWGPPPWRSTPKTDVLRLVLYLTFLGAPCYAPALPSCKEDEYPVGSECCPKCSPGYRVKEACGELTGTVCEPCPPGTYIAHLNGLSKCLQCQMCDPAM
# [6] = tested on: BTLA; conditions: SPR, HVEM protein binding to BTLA; unit not given; cited from earlier work
# Text: Table 1 Rate constants: k1, k−1 and KD for the BTLA/HVEM and BTLA/HVEM (14–39) complexes determined using SPR and molecular dynamics simulation. […] SPR provided more accurate data. […] KD and affinity are inversely related, which means that the lower the KD value, the higher the affinity of the molecules. The HVEM (14–39) peptide binds and d ...
# [7] = target: T3, Recombinant human BTLA-Fc (human, UniProt Q7Z6A9 31-157); test: affinity chromatography on a microcolumn, fractions read by MALDI-TOF MS; BTLA-Fc immobilised in a microcolumn; peptide incubated, excess removed, complex dissociated; supernatant, last wash and elution analysed by mass spectrometry; conditions: both partners purified
# T3 construct: also called BTLA-Fc protein; immobilized BTLA protein; source: gift from Prof; D. Olive (recombinant)
# T3 sequence (looked up): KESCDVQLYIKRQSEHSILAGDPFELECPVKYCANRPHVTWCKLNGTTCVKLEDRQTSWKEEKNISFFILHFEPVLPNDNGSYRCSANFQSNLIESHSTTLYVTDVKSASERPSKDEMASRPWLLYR
molecule,measurement,setting,value
"CC(=O)N[C@@H](CCC(=O)O)C(=O)N[C@@H](CO)C(=O)N[C@H]1CSSC[C@@H]2NC(=O)[C@H](C)NC(=O)[C@H](CCC(=O)O)NC(=O)[C@H](CCCCN)NC(=O)[C@H](C(C)C)NC(=O)[C@H](CCCNC(=N)N)NC(=O)[C@H](Cc3ccc(O)cc3)NC(=O)CNC(=O)[C@@H]3CCCN3C(=O)[C@H](CO)NC(=O)[C@H](CSSC[C@@H](C(=O)N[C@@H](CCC(=O)O)C(=O)N3CCC[C@H]3C(N)=O)NC(=O)[C@H](C(C)C)NC(=O)[C@H]([C@@H](C)O)NC(=O)CNC(=O)[C@H]([C@@H](C)O)NC(=O)[C@H](CC(C)C)NC(=O)[C@H](CCC(=O)O)NC(=O)CNC2=O)NC(=O)[C@H](CCCCN)NC(=O)[C@@H]2CCCN2C1=O [HVEM (14–39)] (Ac-ESCPKCSPGYRVKEACGELTGTVCEP-NH2; disulfide 3-16, 6-24)",kon,"[1]; SPR Biacore T200, peptide extended by five Gly and biotin at N-terminus on streptavidin chip SA (~1100 RU), BTLA 0-15 µM, HBS-EP pH 7.4, mean of four measurements, read-out: k1, association rate constant",76400 M⁻¹ s⁻¹
same,Kd,"[1]; SPR, Table S1 measurement No 1",13 nM
same,Kd,"[1]; SPR, Table S1 measurement No 2",149 nM
same,Kd,"[1]; SPR, Table S1 measurement No 3",217 nM
same,Kd,"[1]; SPR, Table S1 measurement No 4",30.6 nM
same,Kd,"[1]; SPR, biotin-Gly5 peptide on streptavidin chip, BTLA 0-15 µM, HBS-EP pH 7.4, mean of four measurements",102 nM
same,koff,"[1]; SPR, biotin-Gly5 peptide on streptavidin chip, BTLA 0-15 µM, HBS-EP pH 7.4, mean of four measurements, read-out: k−1, dissociation rate constant",0.00332 s⁻¹
same,cell death of PBMC,[2],did not find any significant increase in cell death
same,toxicity on 293T cells,[3],did not observe any toxicity
"CC(=O)N[C@@H](CCC(=O)O)C(=O)N[C@@H](CO)C(=O)N[C@H]1CSSC[C@@H](C(=O)N[C@@H](CO)C(=O)N2CCC[C@H]2C(=O)NCC(=O)N[C@@H](Cc2ccc(O)cc2)C(=O)N[C@@H](CCCNC(=N)N)C(=O)N[C@H](C(=O)N[C@@H](CCCCN)C(=O)N[C@@H](CCC(=O)O)C(=O)N[C@@H](C)C(=O)N[C@H]2CSSC[C@@H](C(=O)N[C@@H](CCC(=O)O)C(=O)N3CCC[C@H]3C(N)=O)NC(=O)[C@H](C(C)C)NC(=O)[C@H]([C@@H](C)O)NC(=O)CNC(=O)[C@H]([C@@H](C)O)NC(=O)[C@H](CC(C)C)NC(=O)[C@H](CCC(=O)O)NC(=O)CNC2=O)C(C)C)NC(=O)[C@H](CCCCN)NC(=O)[C@@H]2CCCN2C1=O [HVEM (14–39)^C16–C19, ^C29–C37] (Ac-ESCPKCSPGYRVKEACGELTGTVCEP-NH2; disulfide 3-6, 16-24)","blocking of HVEM-Fc binding to BTLA (geometric fluorescence intensity, GMFI)",[4],slight decrease in the blocking capacity
"CC(=O)N[C@@H](CCC(=O)O)C(=O)N[C@@H](CO)C(=O)N[C@H]1CSSC[C@@H](C(=O)N[C@@H](CCC(=O)O)C(=O)N2CCC[C@H]2C(N)=O)NC(=O)[C@H](C(C)C)NC(=O)[C@H]([C@@H](C)O)NC(=O)CNC(=O)[C@H]([C@@H](C)O)NC(=O)[C@H](CC(C)C)NC(=O)[C@H](CCC(=O)O)NC(=O)CNC(=O)[C@@H]2CSSC[C@H](NC(=O)[C@H](CCCCN)NC(=O)[C@@H]3CCCN3C1=O)C(=O)N[C@@H](CO)C(=O)N1CCC[C@H]1C(=O)NCC(=O)N[C@@H](Cc1ccc(O)cc1)C(=O)N[C@@H](CCCNC(=N)N)C(=O)N[C@@H](C(C)C)C(=O)N[C@@H](CCCCN)C(=O)N[C@@H](CCC(=O)O)C(=O)N[C@@H](C)C(=O)N2 [HVEM (14–39)^C16–C37, ^C19–C29] (Ac-ESCPKCSPGYRVKEACGELTGTVCEP-NH2; disulfide 3-24, 6-16)","blocking of HVEM-Fc binding to BTLA (geometric fluorescence intensity, GMFI)",[4],slight decrease in the blocking capacity
"Ac-ESSPKSSPGYRVKEASGELTGTVSEP-NH2 [HVEM (14–39)^C16,19,29,37S]","blocking of HVEM-Fc binding to BTLA (geometric fluorescence intensity, GMFI)",[4],blocking capacity was completely lost
BTLA (from UniProt Q7Z6A9),Kd,[5],250 nM
"HVEM: herpes virus entry mediator, transmembrane glycoprotein of the TNFR superfamily, ligand of BTLA (protein, left off: Fc (detected with anti-human Fc/IgG), end not stated, kept, herpes virus entry mediator, transmembrane glycoprotein of the TNFR superfamily, ligand of BTLA) LPSCKEDEYPVGSECCPKCSPGYRVKEACGELTGTVCEPCPPGTYIAHLNGLSKCLQCQMCDPAMGLRASRNCSRTENAVCGCSPGHFCIVQDGDHCAACRAYATSSPGQRVQKGGTESQDTLCQNCPPGTFSPNGTLEECQHQTKCSWLVTKAGAGTSSSHWV",k−1,[6],0.12
"Ac-ESCPKCSPGYRVKEACGELTGTVCEP-NH2 (peptide, UniProt Q92956 52-77, looked up, disulfide 3-16, 6-24, herpes virus entry mediator (HVEM), residues 14-39 of the numbering of the crystal structure PDB 2AW2, Cys15 replaced by serine; A C-terminal amide is likely (the scrambled peptide is printed as Ac-...-NH2); also called native HVEM (14–39) peptide; native peptide; source: synthetic peptide (solid-phase, Fmoc/tBu, RP-HPLC purified, disulfides formed stepwise)) [HVEM (14–39) peptide]",binding result,[7],binds

# From paper PMC7013932, “Disulfide-Linked Peptides for Blocking BTLA/HVEM Binding” (International Journal of Molecular Sciences, 2020)
